According to US9598387B2 (Southern Research Institute, priority 2012, dated 2017):

How the values were obtained:
[1] = target: human D2 dopamine receptors (Homo sapiens (Human), UniProt P14416); assay: Whole Cell Adenylyl Cyclase Assay, D2; format: cell-based; conditions: inhibition of forskolin (100 μM) stimulated cAMP, normalized to quinpirole; compound conc ≥10× Ki (per compound); mean ± S.E.M.
Experimental: (§1) The intrinsic activity of the compounds was evaluated by determining their ability to inhibit forskolin-dependent (100 μM) stimulation of adenylyl cyclase activity using a whole cell assay. A whole cell-cyclic AMP accumulation assay was performed with stably transfected HEK cells expressing human D2 or D3 dopamine receptors. This assay is an adaptation of an earlier published method (Su et al., Cyclic Nucleotide Res. 1976, 2, 257-285). Details regarding this method have been published (Chu, W. et al. Bioorg. Med. Chem. 2005, 13, 77-87; Taylor, M. et al. Synapse 2010, 64, 251-266). Confluent (60-80%) HEK cells transfected with recombinant D2-like dopamine receptors were grown in DMEM/10% fetal calf serum containing geneticin in […] flasks. The endogenous ATP pool is radioactively labeled by preincubating the cells in serum-free DMEM/25 mM Hepes medium containing 2 μCi/mL of [2,8-^3H]-adenine (20-Ci/mmol) in a 5% CO2 incubator at 37° C. for 75 min. The radioactive medium was removed by aspiration. Serum-free DMEM (5.6 mL) containing 25 mM HEPES, pH 7.4, and 0.1 mM of the phosphodiesterase inhibitor isobutylmethylxanthine was added to the flask. A […] aliquot of cells was removed and added to 50 μL of forskolin (100 μM) and 50 μL of test drug or quinpirole in DMEM-HEPES. The cells were incubated for 20 min at 37° C. (vortexing every 5 min). The reaction was terminated by the addition of 0.5 mL of 10% trichloroacetic acid (w/v) containing 1.0 mM unlabeled cyclic AMP as a recovery standard. Both the [^3H]-cyclic AMP and the [^3H]-ATP fractions were collected following separation using columns of Dowex AG-50W-X4 and alumina. The final yield of [^3H]-cyclic AMP is corrected for column recovery of unlabeled cyclic AMP determined spectrophotometrically (OD259). The results are reported as percent conversion of [^3H]-ATP into [^3H]-cyclic AMP. The values for the percent inhibition are reported as the actual percent of inhibition of the ^3H-cAMP accumulation relative to the assay performed in the absence of a test compound, minus basal activity. […] The percent maximum response is the value for the inhibition normalized to the value for the full agonist quinpirole.

D3R = D3R (Homo sapiens (Human), UniProt P35462); assay: D3 Mitogenesis Functional Assay (3H-thymidine uptake, CHOp-D3 cells); format: cell-based; conditions: for EC50: CHOp-D3 cells, stimulation of mitogenesis, read-out: D3 Agonist EC50; for Emax at 10 µM: % maximum stimulation vs quinpirole (100%), read-out: D3 Agonist Emax; for D3 Antagonist Imax: inhibition of quinpirole stimulation of mitogenesis; for IC50: read-out: D3 Antagonist IC50
Sequence of D3R (P35462 whole entry): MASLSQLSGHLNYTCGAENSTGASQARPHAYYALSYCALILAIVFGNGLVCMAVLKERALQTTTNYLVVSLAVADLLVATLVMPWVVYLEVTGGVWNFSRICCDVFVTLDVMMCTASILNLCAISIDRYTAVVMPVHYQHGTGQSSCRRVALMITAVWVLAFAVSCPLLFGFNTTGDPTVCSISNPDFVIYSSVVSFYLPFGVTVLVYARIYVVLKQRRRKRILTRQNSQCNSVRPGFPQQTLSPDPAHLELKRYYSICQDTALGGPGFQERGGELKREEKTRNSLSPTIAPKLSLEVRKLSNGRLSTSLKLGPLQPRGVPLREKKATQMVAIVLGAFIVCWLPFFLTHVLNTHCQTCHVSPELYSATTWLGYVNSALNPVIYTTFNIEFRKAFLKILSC
Experimental: (§2) These assays are based on ^3H-thymidine uptake by cells that are proliferating.
CHO cells expressing human D3 receptors (CHOp-D3 cells) were maintained in alpha-MEM with 10% fetal bovine serum (FBS, Atlas Biologicals), 0.05% pen-strep, and 200 μg/ml of G418. […] The cells are incubated at 37° C. in alpha-MEM with 10% FBS. After 48-72 hours, the cells are rinsed twice with serum-free alpha-MEM and incubated for 24 hours at 37° C. Serial dilutions of test compounds were made by the Biomek robotics system in serum-free alpha-MEM. In the functional assay for agonism, the medium is removed and replaced with 100 μL of test compound in serum-free alpha-MEM. In the antagonist assay, the serial dilution of the putative antagonist test compound was added in 90 μL (1.1× of final concentration) and 300 nM quinpirole (30 nM final) was added in 10 uL. After another 16-hour incubation at 37° C., 0.25 μCi of [^3H]thymidine in alpha-MEM supplemented with 10% FBS was added to each well and the plates were further incubated for 2 hours at 37° C. The cells were trypsinized by addition of 10× trypsin solution (1% trypsin in calcium-magnesium-free phosphate-buffered saline) and the plates were filtered and counted as usual. Quinpirole was run as an internal control and dopamine was included for comparative purposes. Butaclamol was run as the standard antagonist. Data were analyzed using GraphPAD Prism and agonist potency was expressed as EC50 values or % stimulation and antagonist potency was expressed as IC50 values. In these assays, based on the % maximum stimulation as compared to the standard agonist quinpirole (100%) the compounds were classified into following categories: ≧90% full agonist; 70-90% partial to full agonist; <70% partial agonist; 0-20% potential antagonist.

[2] = target: T1, human D3 dopamine receptor (Homo sapiens (Human), UniProt P35462); assay: Whole Cell Adenylyl Cyclase Assay, D3; format: cell-based; conditions: inhibition of forskolin (100 μM) stimulated cAMP, normalized to quinpirole; compound conc ≥10× Ki (per compound); mean ± S.E.M.
T1 sequence (P35462 whole entry): as above
Experimental: as §1

human D2 receptors = human D2 receptors (Homo sapiens (Human), UniProt P14416); assay: D2 Mitogenesis Functional Assay (3H-thymidine uptake, CHOp-D2 cells); format: cell-based; conditions: for EC50: CHOp-D2 cells, stimulation of mitogenesis, read-out: D2 Agonist EC50; for Emax at 10 µM: % maximum stimulation vs quinpirole (100%), read-out: D2 Agonist Emax; for Emax at 10 µM / D2 Antagonist Imax: at 10 μM; for D2 Antagonist Imax: inhibition of quinpirole stimulation of mitogenesis; for IC50: read-out: D2 Antagonist IC50
Sequence of human D2 receptors (P14416 whole entry): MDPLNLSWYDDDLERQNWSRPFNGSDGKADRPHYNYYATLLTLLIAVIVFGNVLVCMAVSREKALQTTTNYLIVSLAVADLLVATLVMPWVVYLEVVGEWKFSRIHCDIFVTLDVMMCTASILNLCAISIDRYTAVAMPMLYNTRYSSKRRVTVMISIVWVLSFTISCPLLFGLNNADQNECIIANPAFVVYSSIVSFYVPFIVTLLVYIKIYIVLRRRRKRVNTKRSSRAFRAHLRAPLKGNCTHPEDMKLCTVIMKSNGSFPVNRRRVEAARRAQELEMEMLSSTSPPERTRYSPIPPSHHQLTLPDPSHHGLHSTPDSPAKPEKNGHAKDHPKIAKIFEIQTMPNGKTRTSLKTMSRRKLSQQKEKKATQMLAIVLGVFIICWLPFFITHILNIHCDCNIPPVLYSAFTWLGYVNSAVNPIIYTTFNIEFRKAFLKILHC
Experimental: as §2
CHO cells expressing human D2 receptors (CHOp-D2 cells) were maintained in alpha-MEM with 10% FCS, 0.05% pen-strep, and 200 μg/mL of G418. […] The cells were incubated at 37° C. in alpha-MEM with 10% FCS. After 48-72 hours, the cells were rinsed twice with serum-free alpha-MEM and incubated for 24 hours at 37° C. Serial dilutions of test compounds were made by the Biomek robotics system in serum-free alpha-MEM. In the functional assay for agonism, the medium was removed and replaced with 100 μL of test compound in serum-free alpha-MEM. In the antagonist assay, the serial dilution of the putative antagonist test compound was added in 90 μL (1.1× of final concentration) and 300 nM quinpirole (30 nM final) was added in […]. After another 24-hour incubation at 37° C., 0.25 μCi of [^3H]thymidine in alpha-MEM supplemented with 10% FCS was added to each well and the plates were further incubated for 2 hours at 37° C. The cells were trypsinized by addition of 10× trypsin solution (1% trypsin in calcium-magnesium-free phosphate-buffered saline) and the plates were filtered and counted as usual. Quinpirole was run as an internal control and dopamine was included for comparative purposes. Butaclamol was run as the standard antagonist.

[3] = target: T1, human D3 dopamine receptor; assay: Radioligand binding (125I-IABN competition), D3; conditions: for Ki: 125I-IABN competition, HEK cell membranes expressing human D3; for D2/D3 (D3 selectivity ratio, D2 Ki/D3 Ki): calculated D2 Ki/D3 Ki
Experimental: (§3) The affinities of the target compounds were determined using radioligand binding experiments. […] Competition curves were modeled for a single site. Data from competition dose-response curves were analyzed using Tablecurve program (Jandel). IC50 values were converted to equilibrium dissociation constants (Ki values) using the Cheng and Prusoff correction.

[4] = target: human D2-long dopamine receptor (Homo sapiens (Human), UniProt P14416); assay: Radioligand binding (125I-IABN competition), D2; conditions: HEK cell membranes expressing human D2-long
Sequence of human D2-long dopamine receptor (P14416 whole entry): as above
Experimental: as §3

Sequence of human D2 dopamine receptors (P14416 whole entry): as above

Row | D2 Cyclase % Inhibition Normalized [1] [%] | EC50 (D3R) [µM] | Emax at 10 µM (D3R) [%] | D3 Antagonist Imax (D3R) [%] | IC50 (D3R) [µM] | D3 Cyclase % Inhibition Normalized [2] [%] | EC50 (human D2 receptors) [µM] | Emax at 10 µM (human D2 receptors) [%] | D2 Antagonist Imax (human D2 receptors) [% at 10 μM] | IC50 (human D2 receptors) [µM] | Ki [3] [µM] | D2/D3 (D3 selectivity ratio, D2 Ki/D3 Ki) [3] | Ki [4] [µM] | SMILES
1 | 21.8 ± 6.6 | > 10 | < 5 | 83.8 | 0.0547 ± 0.0094 | 60.9 ± 4.0 | > 10 | < 1 | 99.9 | 0.232 ± 0.061 | 0.008 ± 0.0016 | 92 | 0.74 ± 0.0983 | CC(C)(C)c1nc(N2CCN(CCCCNC(=O)N3CCN(c4ccccn4)CC3)CC2)cc(C(F)(F)F)n1 [Compound 29, N-(4-(4-(2-(tert-Butyl)-6-(trifluoromethyl)pyrimidin-4-yl)piperazin-1-yl)butyl)-4-(pyridin-2-yl)piperazine-1-carboxamide]
2 | −9.2 ± 8.3 |  |  |  |  | 8.2 ± 4.2 |  |  |  |  | 0.0041 ± 0.001 | 72 | 0.294 ± 0.0596 | N#Cc1cc(N2CCN(CCCCNC(=O)N3CCN(c4ccccc4)CC3)CC2)cc(C(F)(F)F)c1 [Compound 4, N-(4-(4-(3-Cyano-5-(trifluoromethyl)phenyl)piperazin-1-yl)butyl)-4-phenylpiperazine-1-carboxamide]
3 |  | > 10 | < 8 | 84.4 | 0.195 ± 0.039 | 40.8 ± 9.7 | > 10 | < 1 | 100 | 0.257 ± 0.09 | 0.0137 ± 0.0031 | 87 | 1.19 ± 0.0674 | CC(C)(C)c1nc(N2CCN(CCCCNC(=O)N3CCN(c4ncccn4)CC3)CC2)cc(C(F)(F)F)n1 [Compound 32, N-(4-(4-(2-(tert-Butyl)-6-(trifluoromethyl)pyrimidin-4-yl)piperazin-1-yl)butyl)-4-(pyrimidin-2-yl)piperazine-1-carboxamide]
4 |  |  | < 20 | 96.8 | 0.04 ± 0.015 | 78.9 ± 17.1 |  | < 20 | 98.5 | 0.286 ± 0.027 | 0.0019 ± 0.0004 | 53 | 0.102 ± 0.011 | O=C(NCCCCN1CCN(c2cccc(Cl)c2Cl)CC1)N1CCC(c2ccccc2)CC1 [Compound 47, N-(4-(4-(2,3-Dichlorophenyl)piperazin-1-yl)butyl)-4-phenylpiperidine-1-carboxamide]
5 | 24.4 ± 3.8 |  |  |  |  | 43.1 ± 9.4 |  |  |  |  | 0.0098 ± 0.0012 | 119 | 1.17 ± 0.128 | O=C(NCCCCN1CCN(c2ccnc3ccccc23)CC1)N1CCN(c2ccccc2)CC1 [Compound 11, 4-Phenyl-N-(4-(4-(quinolin-4-yl)piperazin-1-yl)butyl)piperazine-1-carboxamide]
6 | −24.0 ± 7.0 |  |  |  |  | 19.8 ± 6.7 |  |  |  |  | 0.0122 ± 0.002 | 64 | 0.778 ± 0.0295 | CC(C)(C)c1nc(N2CCN(CCCCNC(=O)N3Cc4ccccc4C3)CC2)cc(C(F)(F)F)n1 [Compound 39, N-(4-(4-(2-(tert-Butyl)-6-(trifluoromethyl)pyrimidin-4-yl)piperazin-1-yl)butyl)isoindoline-2-carboxamide]
7 | 30.4 ± 14.6 |  |  |  |  | 42.4 ± 8.9 |  |  |  |  | 0.0415 ± 0.0091 | 93 | 3.88 ± 1.23 | Cc1cc(N2CCN(CCCCNC(=O)N3CCN(c4ccccc4)CC3)CC2)nc(C(F)(F)F)n1 [Compound 7, N-(4-(4-(6-Methyl-2-(trifluoromethyl)pyrimidin-4-yl)piperazin-1-yl)butyl)-4-phenylpiperazine-1-carboxamide]
8 | 34.0 ± 9.1 |  |  |  |  | 20.0 ± 6.2 |  |  |  |  | 0.0087 ± 0.0022 | 81 | 0.707 ± 0.0962 | CC(C)(C)c1nc(N2CCN(CCCCNC(=O)N3CCN(c4cccc(C#N)c4)CC3)CC2)cc(C(F)(F)F)n1 [Compound 26, N-(4-(4-(2-(tert-Butyl)-6-(trifluoromethyl)pyrimidin-4-yl)piperazin-1-yl)butyl)-4-(3-cyanophenyl)piperazine-1-carboxamide]
9 | −5.9 ± 5.4 |  |  |  |  | 11.6 ± 3.1 |  |  |  |  | 0.0073 ± 0.0016 | 93 | 0.68 ± 0.135 | Cc1cc(N2CCN(CCCCNC(=O)N3CCC(n4c(=O)[nH]c5ccccc54)CC3)CC2)nc(C(C)(C)C)n1 [Compound 52, N-(4-(4-(2-(tert-Butyl)-6-methylpyrimidin-4-yl)piperazin-1-yl)butyl)-4-(2-oxo-2,3-dihydro-1H-benzo[d]imidazol-1-yl)piperidine-1-carboxamide]
10 | 91.4 ± 2.4 |  |  |  |  | 48.3 ± 9.4 |  |  |  |  | 0.002 ± 0.0002 | 62 | 0.124 ± 0.0262 | O=C(NCCCCN1CCN(c2ccccc2)CC1)N1CCN(c2ccccc2)CC1 [Compound 1, 4-Phenyl-N-(4-(4-phenylpiperazin-1-yl)butyl)piperazine-1-carboxamide]
11 | 6.1 ± 7.5 |  |  |  |  | 9.1 ± 5.8 |  |  |  |  | 0.0059 ± 0.0011 | 77 | 0.455 ± 0.086 | CC(C)(C)c1nc(N2CCN(CCCCNC(=O)N3CCN(c4cccnc4)CC3)CC2)cc(C(F)(F)F)n1 [Compound 30, N-(4-(4-(2-(tert-Butyl)-6-(trifluoromethyl)pyrimidin-4-yl)piperazin-1-yl)butyl)-4-(pyridin-3-yl)piperazine-1-carboxamide]
